For one data set, the target named is T1, HDAC8 (Homo sapiens, UniProt Q9BY41).
T1 sequence (Q9BY41 1-377): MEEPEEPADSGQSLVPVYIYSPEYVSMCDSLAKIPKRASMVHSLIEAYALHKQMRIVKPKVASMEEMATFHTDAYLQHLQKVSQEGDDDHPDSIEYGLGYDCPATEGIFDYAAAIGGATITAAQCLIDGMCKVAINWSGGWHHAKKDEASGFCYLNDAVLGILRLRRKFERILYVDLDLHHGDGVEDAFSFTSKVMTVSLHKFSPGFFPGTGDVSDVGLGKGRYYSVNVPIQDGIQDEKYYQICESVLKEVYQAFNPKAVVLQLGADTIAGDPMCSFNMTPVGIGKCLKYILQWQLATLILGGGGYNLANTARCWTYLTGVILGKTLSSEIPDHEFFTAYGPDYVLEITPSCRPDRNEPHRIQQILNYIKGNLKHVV
In words: HDAC8 protease-coupled fluorescence (AMC) inhibition assay. The data set is classed as biochemical. The following applies: hr enzyme, substrate RHK(Ac)K(Ac)AMC; read-out: IC50 against HDAC8. The source says: The new hydroxamates 2 and 6 were screened and profiled via a protease-coupled assay in which the quantification of HDAC enzyme activity is based on the formation of a free fluorescent group, the 7-amino-4-methyl coumarin (AMC).[42] […] After deacetylation by HDACs, the de(trifluoro)acetylated AMC–peptides were sensitive toward lysine peptidase and free fluorogenic AMC was generated and quantified.[42]
To gain insights into its inhibition profile for human HDACs, we tested 3 against hrHDACs 1–6 and 8 following the above procedure (Table 1).
Individual IC50 values for each HDAC isozyme were measured with the homogeneous fluorescence release HDAC assay.[42]

For data set [1], the system named is L. amazonensis promastigotes. Kind of data set: Resazurin reduction assay, L. amazonensis promastigotes. The data set is classed as cell-based. The following applies: Leishmania amazonensis, read-out: percentage of inhibition, L. amazonensis promastigotes. In general terms: Resazurin is reduced to fluorescent resorufin, in cell work by metabolically active cells.

A short description of another data set: in vitro. The following applies: mouse, noninfected L929 fibroblast cells.

Broadly, the IC50 is the midpoint of a concentration-inhibition curve. The term inhibition denotes the change of the read-out against control, counted positive when it falls. One may read the CC50 as the concentration at which the toxic effect on the cells reaches its halfway point. Low values mean harm at low concentration, high ones better tolerance by the cells. Consider `CN(C)Cc1ccc(S(=O)(=O)n2ccc3cc(/C=C/C(=O)NO)ccc32)cc1` [Compound 6, 3-(1-((4-((Dimethylamino)methyl)phenyl)sulfonyl)-1H-indol-5-yl)-N-hydroxy Acrylamide], for which the IC50 at HDAC8 was found to be 1.87 µM. Besides, in data set [1], the inhibition at 4 µM was 9.2 ± 3.4% and the inhibition at 20 µM came out at 60.1 ± 1.7%. Besides, in the data set “in vitro”, the 50% cytotoxic concentration (CC50) at 96 h turned out to be 5 µM.

Turning to `O=C(/C=C/c1ccc(CSc2nc(Cl)cc(-c3ccccc3)n2)cc1)NO` [Compound 2, 3-(4-(((4-Chloro-6-phenylpyrimidin-2-yl)thio)methyl)phenyl)-N-hydroxy Acrylamide], at HDAC8, the IC50 is 2.22 µM. Besides, in data set [1], the inhibition at 4 µM worked out at 11.3 ± 1.7% and the inhibition at 20 µM was 83.3 ± 1.8%. Moreover, the half-maximal cytotoxic concentration (CC50) at 96 h in the data set “in vitro” is 20 µM.
